Changes are numbered by the printed parent chain. The source made the active and inactive calls. The calls are words filed in the database; no cut-off is given here.
Tests used:
[1] = system: Jurkat; assay: Binding affinity to PTP1B in human Jurkat cell lysate at 0.8 mM after 1 hr by Western blotting analysis in presence of alpha-bromobenzylphosphonate; type: cell-free
[2] = molecular target: Protein tyrosine phosphatase type IVA 3 (Homo sapiens) (UniProt O75365); assay: Binding affinity to purified recombinant PTP4A3 using streptaive HRP at 200 uM by Western blotting analysis
Protein tyrosine phosphatase type IVA 3 (Homo sapiens), sequence (O75365 whole entry): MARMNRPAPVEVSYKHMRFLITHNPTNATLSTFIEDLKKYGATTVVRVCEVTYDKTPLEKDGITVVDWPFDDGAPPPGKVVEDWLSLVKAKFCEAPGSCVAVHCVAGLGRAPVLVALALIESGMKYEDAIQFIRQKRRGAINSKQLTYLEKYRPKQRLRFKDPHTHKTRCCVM

[3] = molecular target: T1, Tyrosine-protein phosphatase non-receptor type 1 (Homo sapiens) (UniProt P18031); assay: Binding affinity to purified recombinant PTP1B using streptaive HRP at 200 uM after 1 hr by Western blotting analysis
T1 sequence (whole entry): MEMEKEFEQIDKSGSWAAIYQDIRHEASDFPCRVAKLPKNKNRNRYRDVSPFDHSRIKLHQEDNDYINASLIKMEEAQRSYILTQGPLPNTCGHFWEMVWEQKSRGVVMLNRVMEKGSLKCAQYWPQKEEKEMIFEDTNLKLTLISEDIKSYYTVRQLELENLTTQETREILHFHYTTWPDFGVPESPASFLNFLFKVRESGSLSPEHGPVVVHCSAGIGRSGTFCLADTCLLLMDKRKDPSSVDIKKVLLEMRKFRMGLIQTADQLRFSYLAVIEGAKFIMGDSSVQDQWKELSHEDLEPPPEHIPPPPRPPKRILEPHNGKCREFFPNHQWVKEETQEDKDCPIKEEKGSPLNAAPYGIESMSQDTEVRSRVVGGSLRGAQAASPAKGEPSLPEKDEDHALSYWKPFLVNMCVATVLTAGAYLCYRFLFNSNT

[4] = system: Escherichia coli; assay: Binding affinity to PTP4A3 in Escherichia coli lysate at 0.8 mM after 1 hr by Western blotting analysis in presence of alpha-bromobenzylphosphonate
[5] = system: T2, Tyrosine-protein phosphatase non-receptor type 1 (Homo sapiens), P18031 [C215S]; assay: Binding affinity to purified recombinant dPTP1B C215S mutant using streptaive HRP at 200 uM after 1 hr by Western blotting analysis
T2 sequence (whole entry): T1 sequence (whole entry) with C215S

[6] = molecular target: Protein tyrosine phosphatase type IVA 3 (Homo sapiens) (UniProt O75365); assay: Binding affinity to purified recombinant PTP4A3 using streptaive HRP at 20 uM after 1 hr by Western blotting analysis
[7] = molecular target: T1, Tyrosine-protein phosphatase non-receptor type 1 (Homo sapiens); assay: Binding affinity to purified recombinant PTP1B using streptaive HRP at 20 uM after 1 hr by Western blotting analysis
[8] = system: Escherichia coli; assay: Binding affinity to PTP1B in Escherichia coli lysate at 0.8 mM after 1 hr by Western blotting analysis

In the case of `NC(=O)[C@H](Cc1ccc(OP(=O)(O)O)c(C(F)F)c1)NC(=O)[C@H](CC(=O)O)NC(=O)Cc1ccc(C(F)(F)P(=O)(O)O)cc1`, the Activity [1] is reported as “Active”, the Activity [2] is reported as “Active” and the Activity [3] is reported as “Active”. The Activity [4] was “Active”, the Activity [5] was “inactive” and the Activity [6] was “inactive”. The Activity [7] was “Active” and the Activity [8] was “Active”.
